Data on two compounds can be found in US11154621B2, “Liponucleotide-based therapy for COPD” (priority 2017, dated 2021).

Test [1] relates to influenza A/WSN/33 (H1N1)-infected mice. Kind of test: Effect of influenza infection and i.p. liponucleotide treatment on lung function. In kind it is in vivo, mouse.
The subject of test [2] is elastase-induced emphysema in C57BL/6 mice. Kind of test: Mouse model of emphysema (intratracheal elastase administration). In kind it is in vivo. To be noted: daily i.p. days 1-13, day 14. The protocol:
To experimentally determine the efficacy of the liponucleotides (lipoNTs) CDP-choline (CDP-CHO), CDP-ethanolamine (CDP-ETH), and CDP-diacylglycerol 16:0/16:0 (CDP-DAG) as therapeutics in a mouse model of emphysema (intratracheal elastase administration) (Yoshida S, et al. Am J Physiol Lung Cell Mol Physiol 2012 303:L852-L860).
To induce emphysema, porcine pancreatic elastase was administered intratracheally to adult female C57BL/6 mice (n=5-10 per group) by per os intubation under light anesthesia at day 0 and day 7. LipoNTs were administered daily by the intraperitoneal route in 50 μl sterile saline at the timepoints indicated for each group.
Analysis of elastase and lipoNT effects: Data were collected 14 days after first elastase administration in terminal experiments.
1. Static lung compliance (CST) was measured in live mice by the forced-oscillation method using the SciReq flexiVent computer-controlled mechanical ventilator, as in previous studies (Traylor Z P, Yet al. Am J Physiol Lung Cell Mol Physiol 2010 298:L437-L445).
2. Following flexiVent analysis, bronchoalveolar lavage was performed on all mice using 0.8 ml PBS. BALF total and differential cell counts (trypan-blue stained live cells and Giemsa-stained cytospins, respectively) were performed on cell pellets to assess inflammatory cell infiltrates. BALF alveolar macrophage (AM) counts were determined.

Test [3] relates to BLEO-induced pulmonary fibrosis in C57BL/6 mice. Put plainly: Mouse model of pulmonary fibrosis (bleomycin exposure). It counts as in vivo. The settings on record: for Mortality: CDP-CHO, CDP-ETH 5 mg/kg, CDP-DAG 0.5 mg/kg. The protocol: To experimentally determine the efficacy of the liponucleotides (lipoNTs) CDP-choline (CDP-CHO), CDP-ethanolamine (CDP-ETH), and CDP-diacylglycerol 16:0/16:0 (CDP-DAG) as therapeutics in a mouse model of pulmonary fibrosis (bleomycin exposure) (Chung S, et al. Oncotarget 2016 7:17532-17546).
To induce […], bleomycin (BLEO) was administered intratracheally to adult female C57BL/6 mice (n=5-10 per group) by per os intubation under light ketamine/xylazine anesthesia at day 0. LipoNTs were administered daily by the intraperitoneal route in 50 μl sterile saline at the timepoints indicated for each group.
Data were collected 21 days after first exposure to BLEO in terminal experiments.
2. Carotid arterial O2 saturation (SaO2) and heart rate were measured in conscious individually-identified animals by pulse oximetry using the MouseOx system.
3. Static lung compliance (CST) was measured in live mice by the forced-oscillation method using the SciReq flexiVent computer-controlled mechanical ventilator, as in previous studies (Traylor Z P, et al. Am J Physiol Lung Cell Mol Physiol 2010 298:L437-L445).
4. Following flexiVent analysis, lungs were removed and flash frozen in liquid N2 for analysis of collagen content. Soluble collagen was measured by a standard Sircol assay.

Where [4] appears, read: infected mice, day 6, i.p. daily from 1-5 days post-infection, CDP-CHO, CDP-ETH 100 μg/mouse, CDP-DAG 10 μg/mouse.

As for CDP-diacylglycerol [CDP-DAG], in test [1] (setting [4]), the “HR (bpm)” value worked out at 600 ± 10 bpm, the “SaO2 (%)” value was 95.2 ± 1.6 % and the “WET:DRY” value turned out to be 5.8 ± 0.1.

For `C[N+](C)(C)CCOP(=O)(O)OP(=O)(O)OC[C@H]1O[C@@H](n2ccc(N)nc2=O)C(O)C1O` (stereo partly shown) [CDP-CHO, CDP-choline], in test [2] (CDP-CHO, CDP-ETH 5 mg/kg, CDP-DAG 0.5 mg/kg), the “static lung compliance (CST)” value is “decreases CST”. Moreover, the “elastase-induced increase in BALF alveolar macrophages (AMs)” value in test [2] is given as “enhanced”. The Mortality entry in test [3] (BLEO, daily i.p. D1-20, day 21) was “significantly attenuated BLEO-induced mortality”; in test [3] (BLEO, daily i.p. D1-20, day 21, listed as CHO) it was 20%. In addition, the “CST (ml/cmH2O ×10)” value in test [3] (BLEO, daily i.p. D1-20, day 21) is 0.38 ± 0.02 ml/cmH2O ×10. For the same compound, the “SaO2 (%)” value in test [3] (BLEO, daily i.p. D1-20, day 21) worked out at 97.0 ± 1.0%; in test [1] (setting [4]), 93.5 ± 1.0 %. Moreover, the “Collagen” value in test [3] (BLEO, daily i.p. D1-20, lung soluble collagen, day 21) is 0.79 ± 0.08 mg/mL. Besides, the “other beneficial effects in this model of pulmonary fibrosis” value in test [3] (daily from 1-20 days after BLEO) is “no other beneficial effects”. Besides, in test [1] (equivalent of SaO2 increase, from approximately 65 mmHg), the PaO2 equivalent result is given as “approximately 85 mmHg”. For the same compound, the “O2 carrying capacity of blood (CaO2)” value in test [1] (equivalent of SaO2 increase, from approximately 88%) is “approximately 97 % of normal”. Moreover, in test [1] (increased from approximately 85%, infected mice), the “SaO2 after CDP-choline treatment” value is recorded as “approximately 96%”. The “effects of single dose treatment late in infection compared with daily treatment” value in test [1] (infected mice) is “as good as those of daily treatment”.
